Laboratory results taken from patent US9890152B2 (Genentech, Inc., priority 2012, dated 2018).

The compounds below were run against T1, EGFR del746-750 T790M (Homo sapiens, UniProt P00533, DEL746-750/T790M) (assay: EGFR del746-750 T790M biochemical assay (Caliper mobility shift)). Details: 5 μM ATP, 30 min, room temperature; apparent Ki (Morrison) converted by Cheng-Prusoff, Km of ATP 2.1 μM; read-out: EGFR(T790M/d746-750) Ki.
T1 construct: purchased Carna Biosciences 08-528
T1 sequence (P00533 with tags, fused parts or gaps DEL746-750/T790M limits assumed): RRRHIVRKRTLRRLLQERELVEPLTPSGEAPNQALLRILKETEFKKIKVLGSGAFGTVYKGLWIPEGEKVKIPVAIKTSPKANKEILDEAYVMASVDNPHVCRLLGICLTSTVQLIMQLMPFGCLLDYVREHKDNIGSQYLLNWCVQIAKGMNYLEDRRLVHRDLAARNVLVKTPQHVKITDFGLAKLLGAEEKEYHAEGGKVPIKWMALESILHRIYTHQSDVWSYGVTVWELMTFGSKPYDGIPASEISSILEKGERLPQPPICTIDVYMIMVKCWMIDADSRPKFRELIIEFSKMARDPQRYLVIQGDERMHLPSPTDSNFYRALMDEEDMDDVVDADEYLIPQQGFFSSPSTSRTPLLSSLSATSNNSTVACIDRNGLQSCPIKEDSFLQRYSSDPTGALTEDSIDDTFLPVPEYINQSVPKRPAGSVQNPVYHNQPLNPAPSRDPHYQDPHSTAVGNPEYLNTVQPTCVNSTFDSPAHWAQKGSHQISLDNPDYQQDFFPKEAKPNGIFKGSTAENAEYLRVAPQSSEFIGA

Row | Ki [nM] | SMILES
1 | 146 | CC(C)n1c(CO)nc2cnc(Nc3ccnc(N4CC[C@](C)(O)[C@H](F)C4)n3)cc21 (racemic) [Example 619, (3RS,4SR)-3-Fluoro-1-[4-(2-hydroxymethyl-1-isopropyl-1H-imidazo[4,5-c]pyridin-6-ylamino)pyrimidin-2-yl]-4-methylpiperidin-4-ol]
2 | 4.25 | Cc1nc2cnc(Nc3ccnc(-c4cnn(S(=O)(=O)C5CCNC5)c4)n3)cc2n1C(C)C (centres unmarked) [Example 258, 1-Isopropyl-2-methyl-N-(2-(1-(pyrrolidin-3-ylsulfonyl)-1H-pyrazol-4-yl)pyrimidin-4-yl)-1H-imidazo[4,5-c]pyridin-6-amine]
3 | 451 | CC(C)n1c(CO)nc2cnc(Nc3ccnc(N4CCCCC4CCO)n3)cc21 (centres unmarked) [Example 668]
4 | 135 | Cc1nc2cnc(Nc3ccnc(N4CC[C@](C)(O)[C@H](F)C4)n3)cc2n1C(C)C [Example 672]
5 | 14.1 | Cc1n[nH]cc1-c1nccc(Nc2cc3c(cn2)nc(C)n3C(C)C)n1 [Example 399, 1-isopropyl-2-methyl-N-(2-(3-methyl-1H-pyrazol-4-yl)pyrimidin-4-yl)-1H-imidazo[4,5-c]pyridin-6-amine]
6 | 6.96 | CO[C@@H]1CCN(c2nccc(Nc3cc4c(cn3)c(C(=O)NC3CCOCC3)cn4C(C)C)n2)C[C@@H]1F [Example 380, 6-((2-((3S,4R)-3-fluoro-4-methoxypiperidin-1-yl)pyrimidin-4-yl)amino)-1-isopropyl-N-(tetrahydro-2H-pyran-4-yl)-1H-pyrrolo [3,2-c]pyridine-3-carboxamide]
7 | 2.97 | Cc1nc2cnc(Nc3ccnc(-c4cnc(N(C)C)s4)n3)cc2n1C(C)C [Example 317, [2-(2-Dimethylaminothiazol-5-yl)pyrimidin-4-yl]-(1-isopropyl-2-methyl-1H-imidazo[4,5-c]pyridin-6-yl)amine]
8 | 1.06 | Cc1c(-c2cn(C(C)C)c3cc(Nc4ccnc(-c5cnn(S(=O)(=O)C6CC6)c5)n4)ncc23)cnn1CCO [Example 438, 2-(4-(6-(2-(1-(cyclopropylsulfonyl)-1H-pyrazol-4-yl)pyrimidin-4-ylamino)-1-isopropyl-1H-pyrrolo[3,2-c]pyridin-3-yl)-5-methyl-1H-pyrazol-1-yl)ethanol]
9 | 2.12 | CC(C)n1c(CO)nc2cnc(Nc3ccnc(-c4cnn(S(=O)(=O)C5CC5)c4)n3)cc21 [Example 272, {6-[2-(1-Cyclopropanesulfonyl-1H-pyrazol-4-yl)pyrimidin-4-ylamino]-1-isopropyl-1H-imidazo[4,5-c]pyridin-2-yl}methanol]
10 | 1.97 | Cc1nc2cnc(Nc3ccnc(-c4cnn(S(=O)(=O)C(C)C)c4)n3)cc2n1C(C)C [Example 409, 1-isopropyl-N-(2-(1-(isopropylsulfonyl)-1H-pyrazol-4-yl)pyrimidin-4-yl)-2-methyl-1H-imidazo[4,5-c]pyridin-6-amine]
11 | 2.37 | CC[C@@H](C)n1c([C@@H](C)O)nc2cnc(Nc3ccnc(-c4cnn(S(=O)(=O)CC)c4)n3)cc21 [Example 281, (R)-1-{1-((R)-sec-Butyl)-6-[2-(1-ethanesulfonyl-1H-pyrazol-4-yl)-pyrimidin-4-ylamino]-1H-imidazo[4,5-c]pyridin-2-yl}ethanol]
12 | 51.7 | Cc1nc2cnc(Nc3ccnc(NCC(C)(C)S(C)(=O)=O)n3)cc2n1C(C)C [Example 499, N^4-(1-Isopropyl-2-methyl-1H-imidazo[4,5-c]pyridin-6-yl)-N2-(2-methyl-2-(methylsulfonyl)propyl) pyrimidine-2,4-diamine]
13 | 55 | Cc1nc2cnc(Nc3ccnc(N4CCC(F)CC4)n3)cc2n1C(C)C [Example 591, [2-(4-Fluoropiperidin-1-yl)pyrimidin-4-yl]-(1-isopropyl-2-methyl-1H-imidazo[4,5-c]pyridin-6-yl)amine]
14 | 8.18 | C[C@H](n1c([C@@H](C)O)nc2cnc(Nc3ccnc(N4CC[C@](C)(O)[C@H](F)C4)n3)cc21)C(F)(F)F [Example 676]
15 | 692 | COC1CCN(c2nccc(Nc3cc4c(cn3)nc(C)n4C(C)CC#N)n2)CC1 (centres unmarked) [Example 349, 3-(6-((2-(4-Methoxypiperidin-1-yl)pyrimidin-4-yl)amino)-2-methyl-1H-imidazo[4,5-c]pyridin-1-yl)butanenitrile]
16 | 4 | CO[C@H]1CCN(c2nccc(Nc3cc4c(cn3)nc([C@@H](C)O)n4[C@@H](C)C(F)(F)F)n2)C[C@H]1F [Example 288, (R)-1-[6-[2-((3R,4S)-3-Fluoro-4-methoxypiperidin-1-yl)-pyrimidin-4-ylamino]-1-((S)-2,2,2-trifluoro-1-methylethyl)-1H-imidazo[4,5-c]pyridin-2-yl]ethanol]
17 | 7.26 | C[C@H](n1c(CO)nc2cnc(Nc3ccnc(N4CC[C@@H](O)[C@@H](F)C4)n3)cc21)C(F)(F)F [Example 666]
18 | 112 | CC(C)n1c(CO)nc2cnc(Nc3ccnc(N4CC[C@@](C)(O)[C@H](F)C4)n3)cc21 [Example 675]
19 | 3.41 | CCC(C)n1cc(C(=O)NC2CCOCC2)c2cnc(Nc3ccnc(N4CC[C@@H](O)[C@@H](F)C4)n3)cc21 (single isomer, unassigned) [Example 323]

Row | Ki [nM] | SMILES
20 | 11.5 | COC1(CO)CCN(c2nccc(Nc3cc4c(cn3)nc([C@@H](C)O)n4[C@@H](C)C(F)(F)F)n2)CC1 [Example 665]
21 | 23.7 | CO[C@H]1[C@@H]2CC[C@H]1CN(c1nccc(Nc3cc4c(cn3)nc(CO)n4C(C)C)n1)C2 [Example 273, (1-Isopropyl-6-((2-((1R,5R,8r)-8-methoxy-3-azabicyclo[3.2.1]octan-3-yl)pyrimidin-4-yl)amino)-1H-imidazo[4,5-c]pyridin-2-yl)methanol]
22 | 138 | CC(C)n1cnc2cnc(Nc3ccnc(N4CCCC(C(N)=O)C4)n3)cc21 (centres unmarked) [Example 66, 1-(4-(1-isopropyl-1H-imidazo[4,5-c]pyridin-6-ylamino)pyrimidin-2-yl)piperidine-3-carboxamide]
23 | 48.3 | CO[C@H]1CCN(c2nccc(Nc3cc4c(cn3)nc(C)n4C(C)C)n2)C[C@H]1F (racemic) [Example 608, [2-((3RS,4SR)-3-Fluoro-4-methoxypiperidin-1-yl)pyrimidin-4-yl]-(1-isopropyl-2-methyl-1H-imidazo[4,5-c]pyridin-6-yl)amine]
24 | 0.62 | CCS(=O)(=O)n1cc(-c2nccc(Nc3cc4c(cn3)c(C(=O)NC3COC3)cn4C(C)C)n2)cn1 [Example 448, 6-(2-(1-(ethylsulfonyl)-1H-pyrazol-4-yl)pyrimidin-4-ylamino)-1-isopropyl-N-(oxetan-3-yl)-1H-pyrrolo[3,2-c]pyridine-3-carboxamide]
25 | 9.29 | CO[C@H]1CCN(c2nccc(Nc3cc4c(cn3)c(C(=O)NC3CCOCC3)cn4C(C)C)n2)C[C@H]1F [Example 381, 6-((2-((3R,4S)-3-fluoro-4-methoxypiperidin-1-yl)pyrimidin-4-yl)amino)-1-isopropyl-N-(tetrahydro-2H-pyran-4-yl)-1H-pyrrolo [3,2-c]pyridine-3-carboxamide]
26 | 2.5 | CCC(C)n1cc(C(=O)NCCO)c2cnc(Nc3ccnc(-c4cnn(S(=O)(=O)C5CC5)c4)n3)cc21 (centres unmarked) [Example 703]
27 | 1.45 | CCC(C)n1cc(C(=O)NC2CCOCC2)c2cnc(Nc3ccnc(-c4cnn(S(=O)(=O)C5CC5)c4)n3)cc21 (single isomer, unassigned; (+)) [Example 321, (+)-1-(sec-Butyl)-6-((2-(1-(cyclopropylsulfonyl)-1H-pyrazol-4-yl)pyrimidin-4-yl)amino)-N-(tetrahydro-2H-pyran-4-yl)-1H-pyrrolo[3,2-c]pyridine-3-carboxamide]
28 | 3.13 | COC1CCN(c2nccc(Nc3cc4c(cn3)c(-c3ccn(CC(N)=O)n3)cn4C(C)C)n2)CC1 [Example 411, 2-(3-(1-isopropyl-6-((2-(4-methoxypiperidin-1-yl)pyrimidin-4-yl)amino)-1H-pyrrolo[3,2-c]pyridin-3-yl)-1H-pyrazol-1-yl) acetamide]
29 | 171 | CC(C)n1c(CO)nc2cnc(Nc3ccnc(OCC(C)(C)S(C)(=O)=O)n3)cc21 [Example 660]
30 | 115 | CS[C@H]1CCN(c2nccc(Nc3cc4c(cn3)nc(C)n4C(C)C)n2)C[C@H]1F (racemic) [Example 617, [2-(±)-(cis-3-Fluoro-4-methylsulfanylpiperidin-1-yl)pyrimidin-4-yl]-(1-isopropyl-2-methyl-1H-imidazo[4,5-c]pyridin-6-yl)amine]
31 | 118 | Cc1nc2cnc(Nc3ccnc(N4CC[C@@H](F)C4)n3)cc2n1C(C)C [Example 593, [2-((R)-3-Fluoropyrrolidin-1-yl)pyrimidin-4-yl]-(1-isopropyl-2-methyl-1H-imidazo[4,5-c]pyridin-6-yl)amine]
32 | 2.37 | CCC(C)n1cc(C(=O)NC2CCC(O)CC2)c2cnc(Nc3ccnc(-c4cnn(S(=O)(=O)C5CC5)c4)n3)cc21 (centres unmarked) [Example 705]
33 | 1.2 | COC1CCN(c2nccc(Nc3cc4c(cn3)c(-c3cc[nH]n3)cn4C(C)C)n2)CC1 [Example 64]
34 | 1.08 | CC(C)n1cc(C(=O)N[C@@H]2CCN(C3COC3)C[C@@H]2F)c2cnc(Nc3ccnc(-c4cnn(S(=O)(=O)C5CC5)c4)n3)cc21 (racemic) [Example 372, (±)-6-((2-(1-(cyclopropylsulfonyl)-1H-pyrazol-4-yl)pyrimidin-4-yl)amino)-N-((cis)-3-fluoro-1-(oxetan-3-yl)piperidin-4-yl)-1-isopropyl-1H-pyrrolo[3,2-c]pyridine-3-carboxamide]
35 | 3.33 | CC[C@H](C)n1cc(C(=O)NC2CCOCC2)c2cnc(Nc3ccnc(N4CC[C@H](OC)[C@H](F)C4)n3)cc21 (single isomer, unassigned) [Example 340]
36 | 3.41 | CCC(C)n1cc(C(=O)NC2CCOCC2)c2cnc(Nc3ccnc(N4CC[C@@H](OC)[C@@H](F)C4)n3)cc21 (single isomer, unassigned) [Example 375]
37 | 1.9 | CC(C)n1cnc2cnc(Nc3ccnc(-c4cnn(S(=O)(=O)C5CC5)c4)n3)cc21 [Example 97, N-(2-(1-(cyclopropylsulfonyl)-1H-pyrazol-4-yl)pyrimidin-4-yl)-1-isopropyl-1H-imidazo[4,5-c]pyridin-6-amine]
38 | 68.8 | COCCC(C)(C)n1c(CO)nc2cnc(Nc3ccnc(-c4cnn(S(=O)(=O)C5CC5)c4)n3)cc21 [Example 695]
